Assay results taken from paper PMC7091509 (Biophysical Journal, 2020).
“Also recorded” adds a separate entry of the source. One block for each substance: values may come before it.

Assays:
[1] = tested on: first vinculin head domain (Vd1); assay: AFM single-molecule force spectroscopy; type: binding; details: for relative mechanical stability of Vd1-VBS complex / ratio of unfolding to direct unbinding (UF/UB): shear-like pulling; for relative mechanical stability of Vd1-VBS complex: AFM experiments and simulations; for ratio of unfolding to direct unbinding (UF/UB): derived from AFM experiments
[2] = molecular target: first vinculin head domain Vd1 (aa 1-258), SII-Vd1-ybbR (UniProt P18206); assay: AFM single-molecule force spectroscopy
Sequence of first vinculin head domain Vd1 (aa 1-258), SII-Vd1-ybbR (P18206 1-258): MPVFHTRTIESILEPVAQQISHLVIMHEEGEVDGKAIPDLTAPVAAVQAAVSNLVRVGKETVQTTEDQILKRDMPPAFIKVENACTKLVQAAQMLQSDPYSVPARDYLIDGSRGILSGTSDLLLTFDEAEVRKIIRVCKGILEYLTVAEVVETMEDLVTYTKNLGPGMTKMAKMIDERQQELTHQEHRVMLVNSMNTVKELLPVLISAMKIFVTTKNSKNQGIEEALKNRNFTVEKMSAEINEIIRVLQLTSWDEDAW

[3] = tested on: vinculin; details: cited from earlier work
[4] = C-terminal pulling, bimodal distribution, 800 nm/s

direct unbinding in experiment ([1]; C-terminal (shear-like) pulling, 800 nm/s): almost no direct unbinding
ratio of unfolding to direct unbinding (UF/UB) [1]: ≈ 2
Substance: GEMVGQARILAQATSDLVNAIKDA [Talin VBS11]
rupture force of high-force population [1, 4]: > 60 pN
rupture force of low-force population [1, 4]: < 60 pN
high-force population ([1]; N-terminal pulling, 800 nm/s): disappeared
unfolding pattern in AFM traces ([1]; shear-like pulling (C-terminal; N-terminal for α-actinin), 800 nm/s): shows a population of high-force traces with multiple unfolding peaks
relative mechanical stability of Vd1-VBS complex [1]: formed the most stable complex

ratio of unfolding to direct unbinding (UF/UB) [1]: ≈ 0.4
Substance: ILEAAKSIAAATSALVKAASAAQRE [Talin VBS58]
relative mechanical stability of Vd1-VBS complex [1]: least stable complex; also recorded: low mechanical stability
interaction in SPOT-peptide assay [3]: strong interaction

Second part, the substance before the results:

Substance: talin VBS11 peptide with C-terminal cysteine (GSGS-VBS-GSGS-C) (from UniProt Q9Y490 820-843)
UF/UB (ratio of unfolding to direct unbinding) [2]: 2
rupture force, high-force population [2]: > 60 pN
rupture force, low-force population [2]: < 60 pN

Substance: talin VBS58 peptide with N-terminal cysteine (C-GSGS-VBS-GSGS) (from UniProt Q9Y490 2345-2369)
UF/UB (ratio of unfolding to direct unbinding) [2]: 0

Substance: talin VBS11 peptide with N-terminal cysteine (C-GSGS-VBS-GSGS) (from UniProt Q9Y490 820-843)
UF/UB (ratio of unfolding to direct unbinding) [2]: 0

Substance: talin VBS58 peptide with C-terminal cysteine (GSGS-VBS-GSGS-C) (from UniProt Q9Y490 2345-2369)
UF/UB (ratio of unfolding to direct unbinding) [2]: 0.4
mean rupture force [2]: 45 to 60 pN
